Article PMC9673926, “Nucleotide binding as an allosteric regulatory mechanism for Akkermansia muciniphila β-N-acetylhexosaminidase Am2136” (Gut Microbes, 2022)
Numbering of substitutions follows the chain as printed.

Legend:
Assay in all cases: Nucleotide binding affinity by intrinsic fluorescence, mutant
Design in all cases: The coding region (residue Q20-L756) of Am2136 without signal peptide was based on UniProt; 6XHis (N); made in house; host or cells: E. coli BL21 (DE3)
Am2136 E649A = biological target: T1, Am2136 E649A (Akkermansia muciniphila, UniProt B2UPR7, E649A)
T1 sequence (B2UPR7 20-756 E649A): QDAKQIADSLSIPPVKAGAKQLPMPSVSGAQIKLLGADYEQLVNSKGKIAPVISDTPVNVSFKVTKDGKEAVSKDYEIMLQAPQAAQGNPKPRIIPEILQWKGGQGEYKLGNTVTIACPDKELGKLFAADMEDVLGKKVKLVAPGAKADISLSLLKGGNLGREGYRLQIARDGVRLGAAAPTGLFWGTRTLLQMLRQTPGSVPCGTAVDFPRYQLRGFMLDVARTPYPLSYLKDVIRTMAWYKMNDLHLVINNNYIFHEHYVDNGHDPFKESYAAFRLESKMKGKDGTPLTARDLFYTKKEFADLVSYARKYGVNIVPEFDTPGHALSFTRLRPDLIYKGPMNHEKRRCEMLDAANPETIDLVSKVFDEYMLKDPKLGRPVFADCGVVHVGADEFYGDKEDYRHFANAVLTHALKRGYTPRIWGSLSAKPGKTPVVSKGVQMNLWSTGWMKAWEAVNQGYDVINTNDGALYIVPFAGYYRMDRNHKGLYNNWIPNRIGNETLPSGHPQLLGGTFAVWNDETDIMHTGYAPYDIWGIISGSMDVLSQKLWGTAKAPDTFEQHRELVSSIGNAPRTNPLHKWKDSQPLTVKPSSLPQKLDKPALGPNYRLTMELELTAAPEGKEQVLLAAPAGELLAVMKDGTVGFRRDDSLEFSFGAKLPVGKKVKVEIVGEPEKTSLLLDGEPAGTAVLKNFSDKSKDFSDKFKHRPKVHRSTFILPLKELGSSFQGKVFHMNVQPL
Procedure: (§1) The nucleotide binding ability was determined on Fluorescence Spectrometer Duetta (HORIBA) by measuring the change of peak intensity. The fluorescence was excited at 286 nm and emitted at 336 nm. And the measurement was processed under 400 V voltage with 2.5 nm excitation slit and 5 nm emission slit. The 120 μL reaction mixture contains 0–550 μM nucleotide, 5 μM proteins, 25 mM Tris pH 8.0 and 150 mM NaCl. The sample was incubated at 4°C for 5 min before testing.

Am2136 Y550A = biological target: T2, Am2136 Y550A (Akkermansia muciniphila, UniProt B2UPR7, Y550A)
T2 sequence (B2UPR7 20-756 Y550A): T1 sequence (B2UPR7 20-756 E649A) with Y531A, A630E
Procedure: as §1

Am2136 R592A = biological target: T3, Am2136 R592A (Akkermansia muciniphila, UniProt B2UPR7, R592A)
T3 sequence (B2UPR7 20-756 R592A): T1 sequence (B2UPR7 20-756 E649A) with R573A, A630E
Procedure: as §1

Work on `Nc1nc2c(ncn2[C@@H]2O[C@H](COP(=O)(O)OP(=O)(O)O)[C@@H](O)[C@H]2O)c(=O)[nH]1` [GDP] yielded a Kd (Am2136 E649A) of 236 µM, a Kd (Am2136 Y550A) of 193 ± 7.36 µM and a Kd (Am2136 R592A) of 120 ± 5.82 µM.
